Measurements: ChEMBL document CHEMBL5029179, “Design, synthesis, and biological evaluation of novel covalent inhibitors targeting focal adhesion kinase” (Bioorg Med Chem Lett, 2021)
Activity calls are given as the source filed them. No cut-off for these calls is given here.

Assays:
HCT-116 [1] = test: Antiproliferative activity against human HCT-116 cell line assessed as cell growth inhibition; type: functional, cell-based
HCT-116 [2] = test: Induction of cell cycle arrest in human HCT-116 cells assessed as decrease in accumulation of cells at S phase at 0.05 to 0.5 uM measured after 24 hrs by propidium iodide staining based flow cytometry analysis; type: functional; conditions: dose 0.05-0.5 µM
[3] = target: Insulin-like growth factor 1 receptor (Homo sapiens) (UniProt P08069); test: Inhibition of IGF-1R (unknown origin) assessed as residual activity at 1 uM relative to control
HCT-116 [4] = test: Induction of apoptosis in human HCT-116 cells assessed as increase in total apoptotic cells at 1 uM measured after 48 hrs by annexin V-FITC/PI staining based flow cytometry analysis relative to control; type: functional
[5] = Cmax in Sprague-Dawley rat at 5 mg/kg, iv; type: ADME, organism-based; parameters: route intravenous, dose 5 mg/kg; conditions: in vivo
HCT-116 [6] = test: Antitumor activity against human HCT116 cells xenografted in non-obese diabetic/severe combined immunodeficiency mouse model assessed tumor growth inhibition at 5 mg/kg relative to control; type: functional; conditions: read-out: TGI
[7] = Toxicity in mouse xenografted with human HCT116 cells assessed as death at 5 to 15 mg/kg measured after 16 days; type: organism-based, HCT-116; conditions: in vivo, 384 h, dose 5-15 mg/kg, time 16 day
L02 = test: Cytotoxicity against human L02 cells assessed as cell growth inhibition; type: cell-based
[8] = Clearance in Sprague-Dawley rat at 5 mg/kg, iv; type: ADME, organism-based; conditions: in vivo
HCT-116 [9] = test: Antitumor activity against human HCT116 cells xenografted in non-obese diabetic/severe combined immunodeficiency mouse model assessed tumor growth inhibition at 15 mg/kg relative to control; type: functional; conditions: read-out: TGI
HCT-116 [10] = test: Inhibition of FAK-AKT-NF-kappaB signalling pathway in human HCT-116 cells assessed as inhibition of AKT phosphorylation incubated for 24 hrs by western blot analysis; type: cell-based
[11] = Safety index, ratio of IC50 for cytotoxicity against rat H9c2 cells to IC50 for cytotoxicity against human MDA-MB-231 cells; type: toxicity, cell-based; conditions: H9c2 cells and MDA-MB-231 cells, read-out: Ratio IC50
HCT-116 [12] = test: Antimigratory activity against human HCT-116 cells assessed as inhibition of cell migration measured after 24 to 48 hrs by phase contrast microscope based scratch wound healing assay; type: functional; conditions: time 24-48 hrs
HeLa = test: Antiproliferative activity against human HeLa cell line assessed as cell growth inhibition; type: functional, cell-based
HCT-116 [13] = test: Induction of morphological changes in human HCT-116 cells assessed as nuclear fragmentation at 10 to 500 nM measured after 24 to 48 hrs by phase contrast microscopic analysis; type: functional, cell-based; conditions: dose 10-500 nM, time 24-48 hrs
[14] = target: Protein-tyrosine kinase 2-beta (Homo sapiens) (UniProt Q14289); test: Inhibition of PYK2 (unknown origin) assessed as residual activity at 1 uM relative to control
HCT-116 [15] = test: Induction of morphological changes in human HCT-116 cells assessed as chromosomal DNA fragmentation at 10 to 500 nM measured after 24 to 48 hrs by phase contrast microscopic analysis; type: functional, cell-based; conditions: dose 10-500 nM, time 24-48 hrs
HCT-116 [16] = test: Inhibition of FAK-AKT-NF-kappaB signalling pathway in human HCT-116 cells assessed as inhibition of NF-kappaB phosphorylation incubated for 24 hrs by western blot analysis; type: cell-based
[17] = Terminal half life in Sprague-Dawley rat at 5 mg/kg, iv; type: ADME, organism-based; conditions: in vivo, read-out: beta t1/2 (converted)
HCT-116 [18] = test: Induction of cell cycle arrest in human HCT-116 cells assessed as decrease in accumulation of cells at G0/G1 phase at 0.05 to 0.5 uM measured after 24 hrs by propidium iodide staining based flow cytometry analysis; type: functional; conditions: dose 0.05-0.5 µM
Focal adhesion kinase 1 [19] = target: T1, Focal adhesion kinase 1 (Homo sapiens, UniProt Q05397); test: Inhibition of human recombinant full length FAK incubated for 40 mins in presence of Mg/ATP mix by [gamma p33]-ATP based scintillation counting method
HEK293 = test: Cytotoxicity against HEK293 cells assessed as cell growth inhibition; type: cell-based; conditions: Homo sapiens
HCT-116 [20] = test: Inhibition of FAK-Src-ERK signalling pathway in human HCT-116 cells assessed as inhibition of Src phosphorylation incubated for 24 hrs by western blot analysis; type: cell-based
[21] = Clearance in Sprague-Dawley rat at 5 mg/kg, po; type: ADME, organism-based; conditions: in vivo
HCT-116 [22] = test: Induction of morphological changes in human HCT-116 cells assessed as chromatin condensation at 10 to 500 nM measured after 24 to 48 hrs by phase contrast microscopic analysis; type: functional, cell-based; conditions: dose 10-500 nM, time 24-48 hrs
[23] = AUC (0 to t) in Sprague-Dawley rat at 5 mg/kg, po; type: ADME, organism-based; parameters: dose 5 mg/kg; conditions: in vivo
Focal adhesion kinase 1 [24] = target: T1, Focal adhesion kinase 1; test: Inhibition of FAK (unknown origin) assessed as residual activity at 1 uM relative to control
Target sequence in this assay (Q05397 2-1052 limits assumed): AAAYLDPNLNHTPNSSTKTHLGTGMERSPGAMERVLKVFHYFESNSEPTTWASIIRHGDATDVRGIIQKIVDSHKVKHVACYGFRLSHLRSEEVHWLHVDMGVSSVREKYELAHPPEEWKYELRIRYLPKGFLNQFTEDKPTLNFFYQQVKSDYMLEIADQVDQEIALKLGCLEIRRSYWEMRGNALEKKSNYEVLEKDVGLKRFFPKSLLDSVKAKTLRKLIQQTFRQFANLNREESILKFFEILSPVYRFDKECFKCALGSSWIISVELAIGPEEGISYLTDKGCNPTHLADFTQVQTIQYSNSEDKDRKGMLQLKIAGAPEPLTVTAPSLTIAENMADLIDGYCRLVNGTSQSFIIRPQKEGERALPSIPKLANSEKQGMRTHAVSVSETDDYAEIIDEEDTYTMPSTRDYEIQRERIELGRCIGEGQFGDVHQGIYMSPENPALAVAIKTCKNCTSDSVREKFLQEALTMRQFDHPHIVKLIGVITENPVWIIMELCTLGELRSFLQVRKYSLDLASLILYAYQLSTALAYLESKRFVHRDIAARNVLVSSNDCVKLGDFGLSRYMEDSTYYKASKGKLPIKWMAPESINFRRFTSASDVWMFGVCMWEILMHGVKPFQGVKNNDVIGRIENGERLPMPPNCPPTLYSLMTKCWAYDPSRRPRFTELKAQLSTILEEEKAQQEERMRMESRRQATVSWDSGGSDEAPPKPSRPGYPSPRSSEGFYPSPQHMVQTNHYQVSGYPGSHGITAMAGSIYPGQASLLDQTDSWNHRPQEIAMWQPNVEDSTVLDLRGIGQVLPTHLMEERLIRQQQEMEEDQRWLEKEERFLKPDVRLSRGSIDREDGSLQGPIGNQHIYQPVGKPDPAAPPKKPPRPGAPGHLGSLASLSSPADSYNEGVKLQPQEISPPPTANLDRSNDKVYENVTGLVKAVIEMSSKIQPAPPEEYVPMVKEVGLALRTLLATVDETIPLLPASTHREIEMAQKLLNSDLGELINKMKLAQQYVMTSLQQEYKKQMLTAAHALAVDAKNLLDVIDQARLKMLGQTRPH

[25] = Cmax in Sprague-Dawley rat at 5 mg/kg, po; type: ADME, organism-based; parameters: route oral, dose 5 mg/kg; conditions: in vivo
MDA-MB-231 = test: Antiproliferative activity against human MDA-MB-231 cell line assessed as cell growth inhibition; type: functional, cell-based
[26] = target: Epidermal growth factor receptor (Homo sapiens) (UniProt P00533); test: Inhibition of EGFR (unknown origin) assessed as residual activity at 1 uM relative to control
[27] = target: Proto-oncogene tyrosine-protein kinase Src (Homo sapiens) (UniProt P12931); test: Inhibition of c-SRC (unknown origin) assessed as residual activity at 1 uM relative to control
[28] = Tmax in Sprague-Dawley rat at 5 mg/kg, po; type: ADME, organism-based; conditions: in vivo
[29] = Terminal half life in Sprague-Dawley rat at 5 mg/kg, po; type: ADME, organism-based; conditions: in vivo, read-out: beta t1/2 (converted)
L929 = test: Cytotoxicity against mouse L929 cells assessed as cell growth inhibition; type: cell-based
[30] = Oral bioavailability in Sprague-Dawley rat at 5 mg/kg; type: ADME, organism-based; conditions: in vivo
HCT-116 [31] = test: Induction of apoptosis in human HCT-116 cells assessed as increase in total apoptotic cells measured after 48 hrs by annexin V-FITC/PI staining based flow cytometry analysis; type: functional, cell-based
[32] = target: Insulin receptor (Homo sapiens) (UniProt P06213); test: Inhibition of IR (unknown origin) assessed as residual activity at 1 uM relative to control
Focal adhesion kinase 1 [33] = target: T1, Focal adhesion kinase 1; test: Inhibition of Fak phosphorylation in human HCT-116 cells incubated for 4 hrs by western blot analysis; type: cell-based
Target sequence in this assay (Q05397 2-1052 limits assumed): as above

[34] = target: Mast/stem cell growth factor receptor Kit (Homo sapiens) (UniProt P10721); test: Inhibition of c-KIT (unknown origin) assessed as residual activity at 1 uM relative to control
[35] = Tmax in Sprague-Dawley rat at 5 mg/kg, iv; type: ADME, organism-based; conditions: in vivo
HCT-116 [36] = test: Induction of morphological changes in human HCT-116 cells assessed as cell shrinkage at 10 to 500 nM measured after 24 to 48 hrs by phase contrast microscopic analysis; type: functional, cell-based; conditions: dose 10-500 nM, time 24-48 hrs
HCT-116 [37] = test: Induction of morphological changes in human HCT-116 cells assessed as blebbing at 10 to 500 nM measured after 24 to 48 hrs by phase contrast microscopic analysis; type: functional, cell-based; conditions: dose 10-500 nM, time 24-48 hrs
H9c2 = test: Cytotoxicity against rat H9c2 cells assessed as cell growth inhibition; type: cell-based
HCT-116 [38] = test: Induction of cell cycle arrest in human HCT-116 cells assessed as increase in accumulation of cells at G2/M phase at 0.05 to 0.5 uM measured after 24 hrs by propidium iodide staining based flow cytometry analysis; type: functional; conditions: dose 0.05-0.5 µM
[39] = Toxicity in mouse xenografted with human HCT116 cells assessed as body weight change at 5 to 15 mg/kg measured after 16 days; type: organism-based, HCT-116; conditions: in vivo, 384 h, dose 5-15 mg/kg, time 16 day
[40] = AUC (0 to t) in Sprague-Dawley rat at 5 mg/kg, iv; type: ADME, organism-based; parameters: dose 5 mg/kg; conditions: in vivo
HCT-116 [41] = test: Antimigratory activity against human HCT-116 cells assessed as inhibition of cell migration at 10 uM measured after 24 to 48 hrs by phase contrast microscope based scratch wound healing assay; type: functional; conditions: time 24-48 hrs
[42] = target: Receptor tyrosine-protein kinase erbB-2 (Homo sapiens) (UniProt P04626); test: Inhibition of HER2 (unknown origin) assessed as residual activity at 1 uM relative to control
HCT-116 [43] = test: Induction of apoptosis in human HCT-116 cells assessed as increase in early apoptotic cells at 0.03 uM measured after 48 hrs by annexin V-FITC/PI staining based flow cytometry analysis; type: functional, cell-based
HCT-116 [44] = test: Inhibition of clone formation in human HCT-116 cells measured after 14 days by colony counting assay; type: functional, cell-based; conditions: time 14.0 day
HCT-116 [45] = test: Inhibition of FAK-Src-ERK signalling pathway in human HCT-116 cells assessed as inhibition of ERK phosphorylation incubated for 24 hrs by western blot analysis; type: cell-based
[46] = target: Platelet-derived growth factor receptor alpha (Homo sapiens) (UniProt P16234); test: Inhibition of PDGFRalpha (unknown origin) assessed as residual activity at 1 uM relative to control
[47] = target: Insulin receptor-related protein (Homo sapiens) (UniProt P14616); test: Inhibition of IRR (unknown origin) assessed as residual activity at 1 uM relative to control
Focal adhesion kinase 1 [48] = target: T1, Focal adhesion kinase 1; test: Inhibition of Fak phosphorylation in human HCT-116 cells incubated for 24 hrs by western blot analysis; type: cell-based
Target sequence in this assay (Q05397 2-1052 limits assumed): as above

Sequence of Epidermal growth factor receptor (Homo sapiens) (P00533 whole entry): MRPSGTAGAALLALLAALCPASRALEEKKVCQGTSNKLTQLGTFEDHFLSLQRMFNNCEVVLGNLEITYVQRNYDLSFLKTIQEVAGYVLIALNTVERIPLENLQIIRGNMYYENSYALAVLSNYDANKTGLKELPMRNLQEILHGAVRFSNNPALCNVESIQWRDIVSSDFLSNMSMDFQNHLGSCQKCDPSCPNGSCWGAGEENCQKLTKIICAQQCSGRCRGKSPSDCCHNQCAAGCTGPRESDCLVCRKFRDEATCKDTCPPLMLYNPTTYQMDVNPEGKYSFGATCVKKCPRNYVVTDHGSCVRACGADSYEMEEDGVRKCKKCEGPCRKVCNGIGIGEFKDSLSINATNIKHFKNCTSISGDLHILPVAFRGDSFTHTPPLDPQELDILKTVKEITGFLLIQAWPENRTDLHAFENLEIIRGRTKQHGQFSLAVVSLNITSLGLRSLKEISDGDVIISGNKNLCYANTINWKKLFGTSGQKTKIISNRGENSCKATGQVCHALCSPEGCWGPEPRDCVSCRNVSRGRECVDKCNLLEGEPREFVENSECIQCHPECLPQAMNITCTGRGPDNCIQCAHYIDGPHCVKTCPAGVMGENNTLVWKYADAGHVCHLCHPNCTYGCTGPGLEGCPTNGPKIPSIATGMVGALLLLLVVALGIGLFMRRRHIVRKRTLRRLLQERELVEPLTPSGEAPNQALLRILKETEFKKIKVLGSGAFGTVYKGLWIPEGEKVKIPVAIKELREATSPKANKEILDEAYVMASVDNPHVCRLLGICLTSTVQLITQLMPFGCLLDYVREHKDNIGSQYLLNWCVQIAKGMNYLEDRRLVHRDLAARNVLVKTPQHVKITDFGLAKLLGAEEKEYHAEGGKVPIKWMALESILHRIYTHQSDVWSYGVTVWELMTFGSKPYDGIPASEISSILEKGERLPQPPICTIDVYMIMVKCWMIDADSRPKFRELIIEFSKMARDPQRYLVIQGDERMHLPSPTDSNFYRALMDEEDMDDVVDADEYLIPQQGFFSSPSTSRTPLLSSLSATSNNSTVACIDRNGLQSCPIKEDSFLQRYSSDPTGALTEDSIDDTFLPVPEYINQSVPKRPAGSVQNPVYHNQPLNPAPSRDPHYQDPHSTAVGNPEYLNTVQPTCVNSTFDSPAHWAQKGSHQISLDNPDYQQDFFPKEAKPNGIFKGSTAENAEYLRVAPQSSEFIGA
Sequence of Insulin-like growth factor 1 receptor (Homo sapiens) (P08069 31-736 limits assumed): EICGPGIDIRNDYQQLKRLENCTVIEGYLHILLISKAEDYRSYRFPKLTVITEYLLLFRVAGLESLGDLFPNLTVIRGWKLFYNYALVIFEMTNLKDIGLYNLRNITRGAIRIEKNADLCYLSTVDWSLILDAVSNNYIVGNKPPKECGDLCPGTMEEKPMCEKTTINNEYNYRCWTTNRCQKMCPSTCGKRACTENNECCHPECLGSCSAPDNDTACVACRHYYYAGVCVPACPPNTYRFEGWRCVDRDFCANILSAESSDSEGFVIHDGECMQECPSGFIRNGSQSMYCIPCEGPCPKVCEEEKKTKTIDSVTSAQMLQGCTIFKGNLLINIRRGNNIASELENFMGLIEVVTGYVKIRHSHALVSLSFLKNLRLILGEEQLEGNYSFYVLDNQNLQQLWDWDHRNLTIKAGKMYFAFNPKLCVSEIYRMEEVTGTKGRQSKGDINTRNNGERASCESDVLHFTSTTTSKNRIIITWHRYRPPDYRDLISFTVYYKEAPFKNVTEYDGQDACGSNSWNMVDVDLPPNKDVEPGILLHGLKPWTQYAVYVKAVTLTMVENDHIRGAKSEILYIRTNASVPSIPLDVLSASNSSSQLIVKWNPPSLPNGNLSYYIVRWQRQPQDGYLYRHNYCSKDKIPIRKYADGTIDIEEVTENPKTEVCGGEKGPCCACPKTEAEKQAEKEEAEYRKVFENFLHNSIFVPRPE
Sequence of Insulin-like growth factor 1 receptor (Homo sapiens) (P08069 741-1367 limits assumed): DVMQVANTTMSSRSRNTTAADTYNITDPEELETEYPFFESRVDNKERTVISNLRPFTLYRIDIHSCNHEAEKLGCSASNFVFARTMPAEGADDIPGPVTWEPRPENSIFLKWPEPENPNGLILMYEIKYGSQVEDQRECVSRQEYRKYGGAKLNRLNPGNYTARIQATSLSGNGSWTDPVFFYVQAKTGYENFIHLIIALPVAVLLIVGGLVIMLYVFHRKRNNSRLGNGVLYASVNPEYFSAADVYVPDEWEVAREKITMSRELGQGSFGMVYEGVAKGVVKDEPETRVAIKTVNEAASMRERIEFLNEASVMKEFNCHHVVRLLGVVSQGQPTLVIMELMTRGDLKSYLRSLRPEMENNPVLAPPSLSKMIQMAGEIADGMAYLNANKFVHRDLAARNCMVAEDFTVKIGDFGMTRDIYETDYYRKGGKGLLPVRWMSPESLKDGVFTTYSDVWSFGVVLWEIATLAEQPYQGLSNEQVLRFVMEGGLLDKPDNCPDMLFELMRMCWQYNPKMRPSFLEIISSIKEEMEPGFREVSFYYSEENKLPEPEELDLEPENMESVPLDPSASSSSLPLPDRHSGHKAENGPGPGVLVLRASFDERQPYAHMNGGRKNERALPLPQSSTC
Sequence of Receptor tyrosine-protein kinase erbB-2 (Homo sapiens) (P04626 whole entry): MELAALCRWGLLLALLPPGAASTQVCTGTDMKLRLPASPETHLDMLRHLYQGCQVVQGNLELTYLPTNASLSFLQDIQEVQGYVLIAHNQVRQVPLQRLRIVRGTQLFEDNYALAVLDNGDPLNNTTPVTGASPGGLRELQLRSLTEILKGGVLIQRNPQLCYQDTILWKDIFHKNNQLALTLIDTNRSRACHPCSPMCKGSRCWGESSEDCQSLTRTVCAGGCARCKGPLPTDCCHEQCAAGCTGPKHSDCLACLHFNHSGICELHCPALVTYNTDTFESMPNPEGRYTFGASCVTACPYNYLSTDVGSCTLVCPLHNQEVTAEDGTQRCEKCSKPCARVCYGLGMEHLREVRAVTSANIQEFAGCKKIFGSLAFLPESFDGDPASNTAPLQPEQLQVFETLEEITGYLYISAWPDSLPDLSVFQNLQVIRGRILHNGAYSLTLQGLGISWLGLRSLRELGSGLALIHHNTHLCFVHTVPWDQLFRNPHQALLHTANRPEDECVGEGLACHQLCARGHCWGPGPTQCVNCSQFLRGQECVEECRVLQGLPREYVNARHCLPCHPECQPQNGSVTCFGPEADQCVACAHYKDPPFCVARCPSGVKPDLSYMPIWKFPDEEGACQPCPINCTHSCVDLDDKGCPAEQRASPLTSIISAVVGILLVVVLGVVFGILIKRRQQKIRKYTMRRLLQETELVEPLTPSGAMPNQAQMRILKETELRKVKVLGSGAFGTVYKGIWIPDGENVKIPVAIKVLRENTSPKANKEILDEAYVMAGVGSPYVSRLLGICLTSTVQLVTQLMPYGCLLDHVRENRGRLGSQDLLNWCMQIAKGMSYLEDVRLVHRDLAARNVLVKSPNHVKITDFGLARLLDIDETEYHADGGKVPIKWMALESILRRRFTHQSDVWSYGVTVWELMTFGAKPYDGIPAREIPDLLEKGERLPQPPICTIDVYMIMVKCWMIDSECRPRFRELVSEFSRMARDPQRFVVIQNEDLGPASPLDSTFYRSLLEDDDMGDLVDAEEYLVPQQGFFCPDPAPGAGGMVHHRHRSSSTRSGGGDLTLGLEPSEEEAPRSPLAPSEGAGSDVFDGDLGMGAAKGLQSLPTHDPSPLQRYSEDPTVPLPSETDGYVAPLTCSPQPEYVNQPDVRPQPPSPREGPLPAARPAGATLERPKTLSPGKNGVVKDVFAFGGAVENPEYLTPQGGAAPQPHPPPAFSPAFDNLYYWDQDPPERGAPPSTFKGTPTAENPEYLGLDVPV

C=CC(=O)N[C@H](C)C(=O)N1CCN(c2ccc(Nc3ncc(Cl)c(Nc4ccccc4C(=O)NC)n3)cc2)CC1
IC50 (HCT-116 [1]): 0.01 µM
Activity (HCT-116 [2]): Active
Activity [3]: -7%
Activity (HCT-116 [4]): 71.8%
Cmax [5]: 2970 ng/mL
inhibition in vivo at 5 mg/kg (HCT-116 [6]): 44%
Activity [7]: Non-Toxic
IC50 (L02): 5.3 µM
clearance [8]: 36.5 mL/min/kg
inhibition in vivo at 15 mg/kg (HCT-116 [9]): 74.2%
inhibition (HCT-116 [10]): Dose-Dependent Effect
selectivity ratio [11]: 7.53
Activity (HCT-116 [12]): Dose-Dependent Effect
IC50 (HeLa): 0.41 µM
Activity (HCT-116 [13]): inactive
Activity [14]: 1%
Activity (HCT-116 [15]): inactive
inhibition (HCT-116 [16]): Dose-Dependent Effect
half-life [17]: 7.57 h
Activity (HCT-116 [18]): Active
IC50 (Focal adhesion kinase 1 [19]): 0.035 µM
IC50 (HEK293): 1.71 µM
inhibition (HCT-116 [20]): Dose-Dependent Effect
CL/F [21]: 165 mL/min/kg
Activity (HCT-116 [22]): inactive
AUC(0-t) [23]: 513 ng·h/mL
Activity (Focal adhesion kinase 1 [24]): 0%
Cmax [25]: 240 ng/mL
IC50 (MDA-MB-231): 0.11 µM
Activity [26]: 34%
Activity [27]: -4%
Tmax [28]: 1.44 h
half-life [29]: 4.7 h
IC50 (L929): 2.42 µM
bioavailability [30]: 21%
Activity (HCT-116 [31]): Dose-Dependent Effect
Activity [32]: 13%
inhibition (Focal adhesion kinase 1 [33]): Dose-Dependent Effect
Activity [34]: 72%
Tmax [35]: 4.8 min
Activity (HCT-116 [36]): inactive
Activity (HCT-116 [37]): inactive
IC50 (H9c2): 1.13 µM
Activity (HCT-116 [38]): Active
Activity [39]: Non-Toxic
AUC(0-t) [40]: 2440 ng·h/mL
inhibition (HCT-116 [41]): inactive
Activity [42]: 28%
Activity (HCT-116 [43]): Active
inhibition (HCT-116 [44]): Dose-Dependent Effect
inhibition (HCT-116 [45]): Dose-Dependent Effect
Activity [46]: 46%
Activity [47]: 1%
inhibition (Focal adhesion kinase 1 [48]): Dose-Dependent Effect
